Test results: publication PMC12057336 (Antimicrobial Agents and Chemotherapy, 2025)
Where two headings read alike, the source gives them in different places.

Columns and labels:
[1] = Tissue distribution after i.g. or i.v. linezolid in control, CCl4-induced and 5/6 Nx rats; format: in vivo, rat; settings: for Kp at 0.5 h / Kp at 1 h / Kp at 4 h: rat
Description: These two groups were further divided into the following three subgroups (n = 4): control rats, CCl4-induced rats, and 5/6 Nx rats. […] The rats were euthanized immediately after blood sampling. The brain, heart, lungs, liver, kidneys, and small intestine were collected. The collected tissues were washed and homogenized in normal saline (three-fold volume of each sample weight) using a multi-sample tissue grinder (Tissuelyser-48L; Shanghai Jingxin Industrial Development Co. Ltd., Shanghai, China). After centrifugation of the homogenate samples at 12,000 × g for 10 min at 4°C, the supernatants were stored at −80°C.
The flow rate was 1.0 mL/min.
Then, 5 µL of the supernatant was analyzed.

MAT1 = test system: MAT1; set-up: method as in PMID 27645247, PMID 26976869, PMID 27550354; settings: cited from earlier work
OCT2 = settings: cited from earlier work
OCT3 = settings: cited from earlier work
OAT1 = settings: cited from earlier work
[2] = brain, iv, 25 mg/kg, i.v. 25 mg/kg linezolid, 5/6 Nx rats, read-out: Tissue/plasma concentration ratio, Brain
[3] = brain, iv, 25 mg/kg, i.v. 25 mg/kg linezolid, CCl4-induced rats, read-out: Tissue/plasma concentration ratio, Brain
[4] = brain, iv, 25 mg/kg, i.v. 25 mg/kg linezolid, control rats, read-out: Tissue/plasma concentration ratio, Brain
[5] = brain, oral, 63 mg/kg, i.g. 63 mg/kg linezolid, 5/6 Nx rats, read-out: Tissue/plasma concentration ratio, Brain
[6] = brain, oral, 63 mg/kg, i.g. 63 mg/kg linezolid, CCl4-induced rats, read-out: Tissue/plasma concentration ratio, Brain
[7] = brain, oral, 63 mg/kg, i.g. 63 mg/kg linezolid, control rats, read-out: Tissue/plasma concentration ratio, Brain
[8] = heart, iv, 25 mg/kg, i.v. 25 mg/kg linezolid, 5/6 Nx rats, read-out: Tissue/plasma concentration ratio, Heart
[9] = heart, iv, 25 mg/kg, i.v. 25 mg/kg linezolid, CCl4-induced rats, read-out: Tissue/plasma concentration ratio, Heart
[10] = heart, iv, 25 mg/kg, i.v. 25 mg/kg linezolid, control rats, read-out: Tissue/plasma concentration ratio, Heart
[11] = heart, oral, 63 mg/kg, i.g. 63 mg/kg linezolid, CCl4-induced rats, read-out: Tissue/plasma concentration ratio, Heart
[12] = heart, oral, 63 mg/kg, i.g. 63 mg/kg linezolid, control rats, read-out: Tissue/plasma concentration ratio, Heart
[13] = heart, oral, 63 mg/kg, i.g. 63 mg/kg linezolid, 5/6 Nx rats, read-out: Tissue/plasma concentration ratio, Heart
[14] = kidney, iv, 25 mg/kg, i.v. 25 mg/kg linezolid, 5/6 Nx rats, read-out: Tissue/plasma concentration ratio, Kidney
[15] = kidney, iv, 25 mg/kg, i.v. 25 mg/kg linezolid, control rats, read-out: Tissue/plasma concentration ratio, Kidney
[16] = kidney, oral, 63 mg/kg, i.g. 63 mg/kg linezolid, CCl4-induced rats, read-out: Tissue/plasma concentration ratio, Kidney
[17] = kidney, oral, 63 mg/kg, i.g. 63 mg/kg linezolid, 5/6 Nx rats, read-out: Tissue/plasma concentration ratio, Kidney
[18] = kidney, oral, 63 mg/kg, i.g. 63 mg/kg linezolid, control rats, read-out: Tissue/plasma concentration ratio, Kidney
[19] = liver (homogenate) relative to plasma, iv, 25 mg/kg, i.v. 25 mg/kg linezolid, 5/6 Nx rats, read-out: Tissue/plasma concentration ratio, Liver
[20] = liver (homogenate) relative to plasma, iv, 25 mg/kg, i.v. 25 mg/kg linezolid, control rats, read-out: Tissue/plasma concentration ratio, Liver
[21] = liver, oral, 63 mg/kg, i.g. 63 mg/kg linezolid, 5/6 Nx rats, read-out: Tissue/plasma concentration ratio, Liver
[22] = liver, oral, 63 mg/kg, i.g. 63 mg/kg linezolid, CCl4-induced rats, read-out: Tissue/plasma concentration ratio, Liver
[23] = liver, oral, 63 mg/kg, i.g. 63 mg/kg linezolid, control rats, read-out: Tissue/plasma concentration ratio, Liver
[24] = lung, iv, 25 mg/kg, i.v. 25 mg/kg linezolid, 5/6 Nx rats, read-out: Tissue/plasma concentration ratio, Lung
[25] = lung, iv, 25 mg/kg, i.v. 25 mg/kg linezolid, CCl4-induced rats, read-out: Tissue/plasma concentration ratio, Lung
[26] = lung, iv, 25 mg/kg, i.v. 25 mg/kg linezolid, control rats, read-out: Tissue/plasma concentration ratio, Lung
[27] = lung, oral, 63 mg/kg, i.g. 63 mg/kg linezolid, 5/6 Nx rats, read-out: Tissue/plasma concentration ratio, Lung
[28] = lung, oral, 63 mg/kg, i.g. 63 mg/kg linezolid, CCl4-induced rats, read-out: Tissue/plasma concentration ratio, Lung
[29] = lung, oral, 63 mg/kg, i.g. 63 mg/kg linezolid, control rats, read-out: Tissue/plasma concentration ratio, Lung
[30] = small intestine, iv, 25 mg/kg, i.v. 25 mg/kg linezolid, 5/6 Nx rats, read-out: Tissue/plasma concentration ratio, Small intestine
[31] = small intestine, iv, 25 mg/kg, i.v. 25 mg/kg linezolid, CCl4-induced rats, read-out: Tissue/plasma concentration ratio, Small intestine
[32] = small intestine, iv, 25 mg/kg, i.v. 25 mg/kg linezolid, control rats, read-out: Tissue/plasma concentration ratio, Small intestine
[33] = small intestine, oral, 63 mg/kg, i.g. 63 mg/kg linezolid, 5/6 Nx rats, read-out: Tissue/plasma concentration ratio, Small intestine
[34] = small intestine, oral, 63 mg/kg, i.g. 63 mg/kg linezolid, CCl4-induced rats, read-out: Tissue/plasma concentration ratio, Small intestine
[35] = small intestine, oral, 63 mg/kg, i.g. 63 mg/kg linezolid, control rats, read-out: Tissue/plasma concentration ratio, Small intestine

For `CC(=O)NC[C@H]1CN(c2ccc(N3CCOCC3)c(F)c2)C(=O)O1` [Linezolid], the Kp at 0.5 h [1, 2] was 0.12 ± 0.04, the Kp at 0.5 h [1, 3] was 0.16 ± 0.12 and the Kp at 0.5 h [1, 4] was 0.11 ± 0.02. It also gave a Kp at 1 h [1, 2] of 0.15 ± 0.01, a Kp at 1 h [1, 3] of 0.12 ± 0.03 and a Kp at 1 h [1, 4] of 0.12 ± 0.02. For the same compound, the Kp at 4 h [1, 2] was 0.13 ± 0.04, the Kp at 4 h [1, 3] was 0.08 ± 0.01 and the Kp at 0.5 h [1, 5] was 0.17 ± 0.06. The Kp at 0.5 h [1, 6] was 0.1 ± 0.01, the Kp at 0.5 h [1, 7] was 0.15 ± 0.02 and the Kp at 1 h [1, 5] was 0.16 ± 0.03. It also gave a Kp at 1 h [1, 6] of 0.09 ± 0.02, a Kp at 1 h [1, 7] of 0.03 ± 0.002 and a Kp at 4 h [1, 5] of 0.18 ± 0.06. The Kp at 4 h [1, 6] was 0.07 ± 0.04, the Kp at 4 h [1, 7] was 0.06 ± 0.03 and the Kp at 0.5 h [1, 8] was 0.85 ± 0.04. For the same compound, the Kp at 0.5 h [1, 9] was 0.63 ± 0.05, the Kp at 0.5 h [1, 10] was 0.5 ± 0.09 and the Kp at 1 h [1, 8] was 0.91 ± 0.04. It also gave a Kp at 1 h [1, 9] of 0.67 ± 0.05, a Kp at 1 h [1, 10] of 0.4 ± 0.07 and a Kp at 4 h [1, 8] of 0.75 ± 0.13. For the same compound, the Kp at 4 h [1, 9] was 0.67 ± 0.09, the Kp at 4 h [1, 10] was 0.13 ± 0.1 and the Kp at 0.5 h [1, 11] was 0.64 ± 0.14. For the same compound, the Kp at 0.5 h [1, 12] was 0.68 ± 0.06, the Kp at 1 h [1, 13] was 0.88 ± 0.12 and the Kp at 1 h [1, 11] was 0.54 ± 0.18. For the same compound, the Kp at 1 h [1, 12] was 0.24 ± 0.06, the Kp at 4 h [1, 13] was 0.96 ± 0.47 and the Kp at 4 h [1, 11] was 0.61 ± 0.03. The Kp at 4 h [1, 12] was 0.47 ± 0.15, the Kp at 4 h ([1]; kidney (homogenate) relative to plasma, iv, 25 mg/kg, i.v. 25 mg/kg linezolid, 5/6 Nx rats, read-out: Tissue/plasma concentration ratio, Kidney) was 1 ± 0.23 and the Kp at 0.5 h [1, 14] was 0.97 ± 0.12. The Kp at 0.5 h ([1]; kidney, iv, 25 mg/kg, i.v. 25 mg/kg linezolid, CCl4-induced rats, read-out: Tissue/plasma concentration ratio, Kidney) was 1.28 ± 0.56, the Kp at 0.5 h [1, 15] was 0.64 ± 0.36 and the Kp at 1 h [1, 14] was 0.92 ± 0.18. It also gave a Kp at 1 h [1, 15] of 0.62 ± 0.52, a Kp at 4 h [1, 15] of 0.84 ± 0.14 and a Kp at 0.5 h [1, 16] of 0.85 ± 0.16. The Kp at 1 h [1, 17] was 0.94 ± 0.18, the Kp at 1 h [1, 16] was 1.18 ± 0.22 and the Kp at 1 h [1, 18] was 0.42 ± 0.06. The Kp at 4 h [1, 17] was 0.97 ± 0.25, the Kp at 4 h [1, 16] was 1.11 ± 0.17 and the Kp at 4 h [1, 18] was 0.75 ± 0.15. The Kp at 0.5 h [1, 19] was 1.24 ± 0.21, the Kp at 0.5 h ([1]; liver (homogenate) relative to plasma, iv, 25 mg/kg, i.v. 25 mg/kg linezolid, CCl4-induced rats, read-out: Tissue/plasma concentration ratio, Liver) was 1.32 ± 0.36 and the Kp at 0.5 h [1, 20] was 1.22 ± 0.46. It also gave a Kp at 1 h [1, 19] of 1.11 ± 0.34, a Kp at 1 h [1, 20] of 0.6 ± 0.38 and a Kp at 4 h ([1]; liver, iv, 25 mg/kg, i.v. 25 mg/kg linezolid, 5/6 Nx rats, read-out: Tissue/plasma concentration ratio, Liver) of 1.39 ± 0.4. For the same compound, the Kp at 4 h ([1]; liver, iv, 25 mg/kg, i.v. 25 mg/kg linezolid, CCl4-induced rats, read-out: Tissue/plasma concentration ratio, Liver) was 1.19 ± 0.85, the Kp at 4 h ([1]; liver, iv, 25 mg/kg, i.v. 25 mg/kg linezolid, control rats, read-out: Tissue/plasma concentration ratio, Liver) was 1.3 ± 0.36 and the Kp at 0.5 h [1, 21] was 1.25 ± 0.6. For the same compound, the Kp at 0.5 h [1, 22] was 1.06 ± 0.44, the Kp at 0.5 h [1, 23] was 1.64 ± 0.75 and the Kp at 1 h [1, 21] was 1.37 ± 0.41. The Kp at 1 h [1, 22] was 1.19 ± 0.18, the Kp at 1 h [1, 23] was 0.78 ± 0.14 and the Kp at 4 h [1, 21] was 1 ± 0.11. For the same compound, the Kp at 4 h [1, 22] was 0.93 ± 0.31, the Kp at 4 h [1, 23] was 1.06 ± 0.16 and the Kp at 0.5 h [1, 24] was 0.87 ± 0.03. For the same compound, the Kp at 0.5 h [1, 25] was 0.55 ± 0.34, the Kp at 0.5 h [1, 26] was 0.42 ± 0.25 and the Kp at 1 h [1, 24] was 0.91 ± 0.08. It also gave a Kp at 1 h [1, 25] of 0.66 ± 0.08, a Kp at 1 h [1, 26] of 0.25 ± 0.18 and a Kp at 4 h [1, 24] of 0.74 ± 0.2. For the same compound, the Kp at 4 h [1, 25] was 0.85 ± 0.14, the Kp at 4 h [1, 26] was 0.45 ± 0.46 and the Kp at 0.5 h [1, 27] was 0.86 ± 0.38. It also gave a Kp at 0.5 h [1, 28] of 0.68 ± 0.16, a Kp at 0.5 h [1, 29] of 0.67 ± 0.13 and a Kp at 1 h [1, 27] of 0.94 ± 0.18. For the same compound, the Kp at 1 h [1, 28] was 0.66 ± 0.05, the Kp at 1 h [1, 29] was 0.07 ± 0.03 and the Kp at 4 h [1, 27] was 0.82 ± 0.09. It also gave a Kp at 4 h [1, 28] of 0.6 ± 0.04, a Kp at 4 h [1, 29] of 0.46 ± 0.15 and a Kp at 0.5 h [1, 30] of 1.19 ± 0.31. It also gave a Kp at 0.5 h [1, 31] of 0.66 ± 0.05, a Kp at 0.5 h [1, 32] of 0.42 ± 0.21 and a Kp at 1 h [1, 30] of 0.77 ± 0.34. The Kp at 1 h [1, 31] was 0.69 ± 0.05, the Kp at 1 h [1, 32] was 0.21 ± 0.01 and the Kp at 4 h [1, 30] was 0.73 ± 0.07. The Kp at 4 h [1, 31] was 0.71 ± 0.09, the Kp at 4 h [1, 32] was 0.47 ± 0.42 and the Kp at 0.5 h [1, 33] was 2.48 ± 0.76. For the same compound, the Kp at 0.5 h [1, 34] was 0.93 ± 0.26, the Kp at 0.5 h [1, 35] was 0.35 ± 0.21 and the Kp at 1 h [1, 33] was 1.28 ± 0.29. It also gave a Kp at 1 h [1, 34] of 0.9 ± 0.09, a Kp at 1 h [1, 35] of 0.33 ± 0.22 and a Kp at 4 h [1, 33] of 0.9 ± 0.31. For the same compound, the Kp at 4 h [1, 34] was 1.11 ± 0.07, the Kp at 4 h [1, 35] was 0.6 ± 0.18 and the “accumulation in brain, heart, lung, liver, kidney, or small intestinal tissues” value ([1]; within 4 hours after i.g. and i.v. administration, hepatic impairment or renal failure rats) was “did not accumulate”. The “inhibitor of MAT1” value (MAT1) was “not an inhibitor”, the “substrate for OCT2” value (OCT2) was “not a substrate” and the “substrate for OCT3” value (OCT3) was “not a substrate”. The “inhibitor of OAT1” value (OAT1) was “inhibitor”.
